{
  "source": "patent US20090233939A1",
  "about": "“TREATMENT OF AMM” (priority 2002, published 2009)",
  "key": {"[1]": {"test_system": "patient having a protuberant spleen", "assay": "Example 2: patient with massive protuberant spleen treated with PTK787", "format": "in vivo, human", "settings": "750 mg twice daily, after five days of therapy", "excerpt": "After five days of therapy, the spleen had less than 10% of its original size."}, "[2]": {"test_system": "patient with splenomegaly"}, "Flt-1": {"biological_target": "Flt-1 (Homo sapiens, UniProt P17948)", "sequence (P17948 27-1338, species assumed)": "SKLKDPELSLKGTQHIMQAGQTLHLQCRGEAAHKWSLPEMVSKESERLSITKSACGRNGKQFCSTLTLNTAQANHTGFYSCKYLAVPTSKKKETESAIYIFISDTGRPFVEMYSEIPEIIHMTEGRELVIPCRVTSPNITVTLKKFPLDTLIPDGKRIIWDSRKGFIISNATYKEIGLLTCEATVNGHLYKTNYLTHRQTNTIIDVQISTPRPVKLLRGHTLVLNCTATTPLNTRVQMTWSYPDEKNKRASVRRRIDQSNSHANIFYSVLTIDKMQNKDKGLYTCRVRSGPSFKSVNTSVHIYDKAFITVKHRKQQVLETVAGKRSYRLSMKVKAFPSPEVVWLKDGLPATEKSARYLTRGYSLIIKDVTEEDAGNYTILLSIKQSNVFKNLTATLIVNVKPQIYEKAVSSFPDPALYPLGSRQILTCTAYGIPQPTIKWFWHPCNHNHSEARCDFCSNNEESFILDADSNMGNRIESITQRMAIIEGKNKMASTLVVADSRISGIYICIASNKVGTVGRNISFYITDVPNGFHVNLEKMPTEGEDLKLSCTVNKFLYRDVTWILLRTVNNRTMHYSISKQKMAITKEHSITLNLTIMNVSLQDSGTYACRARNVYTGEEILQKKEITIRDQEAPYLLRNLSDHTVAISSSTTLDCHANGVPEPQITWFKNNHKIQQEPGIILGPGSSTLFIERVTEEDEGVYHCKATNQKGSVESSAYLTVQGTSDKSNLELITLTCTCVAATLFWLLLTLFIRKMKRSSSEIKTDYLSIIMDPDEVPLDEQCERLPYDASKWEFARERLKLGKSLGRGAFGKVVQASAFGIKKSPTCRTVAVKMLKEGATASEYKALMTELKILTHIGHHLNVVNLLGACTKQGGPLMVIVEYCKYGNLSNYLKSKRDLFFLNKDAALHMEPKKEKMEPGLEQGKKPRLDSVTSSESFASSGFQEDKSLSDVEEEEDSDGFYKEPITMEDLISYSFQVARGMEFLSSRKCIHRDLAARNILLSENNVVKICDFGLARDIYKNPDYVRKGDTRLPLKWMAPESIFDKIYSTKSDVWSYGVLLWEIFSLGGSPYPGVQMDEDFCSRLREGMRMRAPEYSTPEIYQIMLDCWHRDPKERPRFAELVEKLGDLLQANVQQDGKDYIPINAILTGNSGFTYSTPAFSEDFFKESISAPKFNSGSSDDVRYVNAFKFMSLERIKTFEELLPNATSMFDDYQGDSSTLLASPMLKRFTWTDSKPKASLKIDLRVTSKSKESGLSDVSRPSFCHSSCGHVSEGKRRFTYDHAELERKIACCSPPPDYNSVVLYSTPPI", "settings": "cited from earlier work"}, "Flt-4": {"biological_target": "Flt-4 (Homo sapiens, UniProt P35916)", "sequence (P35916 25-1363, species assumed)": "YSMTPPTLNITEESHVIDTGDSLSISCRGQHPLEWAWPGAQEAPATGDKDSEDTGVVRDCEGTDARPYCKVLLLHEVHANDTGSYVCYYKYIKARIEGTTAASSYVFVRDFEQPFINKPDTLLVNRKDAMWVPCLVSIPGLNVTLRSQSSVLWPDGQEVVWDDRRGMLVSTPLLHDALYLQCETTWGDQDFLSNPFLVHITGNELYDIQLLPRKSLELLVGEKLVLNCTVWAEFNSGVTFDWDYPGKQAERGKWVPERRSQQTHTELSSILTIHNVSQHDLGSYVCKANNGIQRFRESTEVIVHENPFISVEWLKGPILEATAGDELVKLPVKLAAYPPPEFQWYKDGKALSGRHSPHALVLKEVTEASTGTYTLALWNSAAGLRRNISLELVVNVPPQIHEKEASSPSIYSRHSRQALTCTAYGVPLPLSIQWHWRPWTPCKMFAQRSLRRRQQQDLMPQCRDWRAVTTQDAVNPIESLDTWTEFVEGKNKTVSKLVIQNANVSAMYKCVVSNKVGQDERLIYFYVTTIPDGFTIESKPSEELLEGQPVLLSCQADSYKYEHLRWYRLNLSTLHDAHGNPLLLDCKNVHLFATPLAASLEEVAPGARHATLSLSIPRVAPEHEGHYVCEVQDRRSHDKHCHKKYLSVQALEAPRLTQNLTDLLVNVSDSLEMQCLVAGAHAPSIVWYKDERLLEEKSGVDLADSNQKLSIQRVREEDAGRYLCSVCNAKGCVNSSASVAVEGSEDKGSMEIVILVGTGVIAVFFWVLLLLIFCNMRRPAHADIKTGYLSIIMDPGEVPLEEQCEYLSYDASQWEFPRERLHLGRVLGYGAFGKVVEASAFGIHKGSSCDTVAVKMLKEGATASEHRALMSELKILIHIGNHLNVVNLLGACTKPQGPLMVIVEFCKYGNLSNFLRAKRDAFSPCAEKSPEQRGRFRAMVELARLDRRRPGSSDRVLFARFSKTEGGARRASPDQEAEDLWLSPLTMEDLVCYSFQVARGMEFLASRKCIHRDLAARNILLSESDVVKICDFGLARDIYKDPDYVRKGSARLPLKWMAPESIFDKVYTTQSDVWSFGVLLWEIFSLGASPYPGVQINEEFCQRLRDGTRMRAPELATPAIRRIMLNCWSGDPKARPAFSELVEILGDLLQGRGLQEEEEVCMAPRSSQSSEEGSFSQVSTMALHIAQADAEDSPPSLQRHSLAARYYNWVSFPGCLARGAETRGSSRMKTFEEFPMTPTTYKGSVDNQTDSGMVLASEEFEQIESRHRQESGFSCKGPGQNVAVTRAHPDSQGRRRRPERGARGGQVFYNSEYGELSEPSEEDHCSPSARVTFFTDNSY", "settings": "cited from earlier work"}, "[3]": {"test_system": "other tyrosine kinase receptors, including c-Kit, bFGF and PDGF", "settings": "cited from earlier work"}},
  "data": [
    {"substance": "PTK787", "values": [
      {"measurement": "spleen size", "setting": "[1]", "value": "less than 10 % of its original size"},
      {"measurement": "splenomegaly", "setting": "[2]; 750 mg twice daily, first 14 days of chemotherapy", "value": "decrease of splenomegaly"},
      {"measurement": "white blood cells count", "setting": "[2]; 750 mg twice daily, first 14 days, drop from 19,000", "value": "14,000"},
      {"measurement": "spleen during interruption of therapy", "setting": "[2]; during the interruption of therapy", "value": "the spleen began to increase again"},
      {"measurement": "inhibition of Flt-1", "setting": "Flt-1", "value": "can also inhibit"},
      {"measurement": "inhibition of Flt-4", "setting": "Flt-4", "value": "can also inhibit"},
      {"measurement": "activity against other tyrosine kinase receptors", "setting": "[3]", "value": "has activity"}
    ]}
  ]
}
